Measurements as given in patent publication US10881110B2, “Herbicidal compositions comprising isoxazolo[5,4-b]pyridines” (BASF SE, priority 2014, dated 2021).
“And” between values parts separate entries of the source, which are not always exact repeats. Equal entries are not always repeated. Where two headings read alike, the source gives them in different places.

Tests used:
Experiment in all cases: greenhouse post-emergence herbicidal test
GALAP = format: in vivo, Galium aparine; parameters: key to herbicidal activity against GALAP found: rating on a scale from 0 to 100; settings: post emergence; for pest or weed control at 31.25 g/ha / pest or weed control at 62.5 g/ha / pest or weed control at 125 g/ha: Galium aparine, post-emergence, 480 h, read-out: herbicidal activity against GALAP found; for pest or weed control at 125 g/ha: 125 g/ha a.i.
How it was run: (§1)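 Post-emergence greenhouse test: plants in loamy sand, sprayed at 1–15 cm height with aqueous spray liquor from 10% emulsion concentrates, kept at 10-25 °C or 20-35 °C by species. Damage scored 0–100 (100 = complete destruction), usually 20 days after treatment. Expected additive effect E from Colby: E=X+Y−(X·Y/100).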

LAMAM = format: in vivo, Lamium amplexicaule; parameters: key: scale 0 to 100
Experimental: The culture containers used were plastic pots containing medium loamy sand with approximately 4.6% of humus and 69.9% sand as substrate. The seeds of the test plants were sown separately for each species.
For the post-emergence treatment, the test plants were grown to a plant height of from 1 to 15 cm, depending on the plant habit, and only then treated with the active compounds which had been suspended or emulsified in water. To this end, the test plants were either sown directly, and grown in the same containers, or they were first grown separately as seedlings and transplanted into the test containers a few days prior to treatment.
Depending on the species, the plants were kept at 10-25° C. and 20-35° C., respectively.
The test period extended over 1 to 3 weeks. During this time, the plants were tended and their response to the individual treatments was evaluated 20 days after treatment except mentioned otherwise.
Evaluation was carried out using a scale from 0 to 100. 100 means no emergence of the plants, or complete destruction of at least the above-ground parts, and 0 means no damage or normal course of growth.
The respective stated components A and B, and, if appropriate, C, were formulated as a 10% by weight strength emulsion concentrate and, with addition of the amount of solvent system, introduced into the spray liquor used for applying the active compound. In the examples, the solvent used was water.
In the examples below, using the method of S. R. Colby (1967) “Calculating synergistic and antagonistic responses of herbicide combinations”, Weeds 15, p. 22 ff., the value E, which is expected if the activity of the individual active compounds is only additive, was calculated. E=X+Y−(X·Y/100)

POLAV = format: in vivo, Polygonum aviculare; parameters: key: rating on a scale from 0 to 100
How it was run: as §1

CHEAL = format: in vivo, Chenopodium album
How it was run: (§2)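 Greenhouse pots, loamy sand substrate (~4.6% humus, ~69.9% sand). Spray applied once plants reached 1–15 cm. Scoring 0–100, day 20.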

ABUTH = format: in vivo, Abutilon theophrast; parameters: key to herbicidal activity against ABUTH found: rating on a scale from 0 to 100; settings: post emergence; for pest or weed control at 31.25 g/ha / pest or weed control at 62.5 g/ha: Abutilon theophrasti, post-emergence, 480 h, read-out: herbicidal activity against ABUTH found
How it was run: as §2

SORVU = format: in vivo; settings: 6 days after treatment
[1] = 6 days after treatment, g/ha a.i.: I.1 62.5, B.96 70, mixture 62.5+70
[2] = 6 days after treatment, g/ha a.i.: I.1 62.5, B.96 140, mixture 62.5+140
[3] = a.i. g/ha: I.1 15.6, B.67 125, 20 days after treatment
[4] = a.i. g/ha: I.1 20.8, B.67 62.5, 20 days after treatment
[5] = a.i. g/ha: I.1 31.25, B.67 125, 20 days after treatment
[6] = a.i. g/ha: I.1 62.5, B.69 25, 20 days after treatment
[7] = a.i. g/ha: I.1 62.5, B.82 31.25, 20 days after treatment
[8] = application rate a.i.: I.1 62.5 g/ha, B.107 (topramezone) 6 g/ha, alone or as mixture (composition 1.107)
[9] = applied alone at 31.25 g/ha a.i.
[10] = applied alone at 62.5 g/ha a.i.
[11] = application rate a.i.: I.1 31.25 g/ha, B.139 (pyroxasulfone) 25 g/ha, alone or as mixture (composition 1.139)
[12] = a.i. g/ha: I.1 15.6, B.190 62.5, 20 days after treatment

## O=C(O)c1cc(C2CC2)nc2onc(C3CC3)c12 [I.1]
GALAP; I.1 alone 31.25 g/ha a.i.
  pest or weed control at 31.25 g/ha: 50%
GALAP; I.1 alone 62.5 g/ha a.i.
  pest or weed control at 62.5 g/ha: 80%
GALAP; 31.25 g/ha a.i.
  pest or weed control at 31.25 g/ha: 50%
GALAP; 62.5 g/ha a.i.
  pest or weed control at 62.5 g/ha: 50%
GALAP
  pest or weed control at 125 g/ha: 80%
GALAP; I.1 31.25 g/ha a.i.
  pest or weed control at 31.25 g/ha: 60%
GALAP; I.1 62.5 g/ha a.i.
  pest or weed control at 62.5 g/ha: 60%
GALAP; single active, 62.5 g/ha a.i.
  pest or weed control at 62.5 g/ha: 65%
GALAP; single active
  pest or weed control at 125 g/ha: 65%
GALAP; [1]
  herbicidal activity against GALAP found: 65
GALAP; [2]
  herbicidal activity against GALAP found: 65
GALAP; I.1 31.25 g/ha, B.95 1 g/ha a.i.
  herbicidal activity against GALAP found: 50
GALAP; I.1 31.25 g/ha, B.95 2 g/ha a.i.
  herbicidal activity against GALAP found: 50
GALAP; I.1 62.5 g/ha, B.103 7.5 g/ha a.i.
  herbicidal activity against GALAP found: 50
GALAP; I.1 62.5 g/ha, B.95 2 g/ha a.i.
  herbicidal activity against GALAP found: 60
GALAP; [3]
  herbicidal activity against GALAP found: 20%
GALAP; [4]
  herbicidal activity against GALAP found: 0%
GALAP; [5]
  herbicidal activity against GALAP found: 75%
GALAP; a.i. g/ha: I.1 31.25, B.92 0.5, 20 days after treatment
  herbicidal activity against GALAP found: 65%
GALAP; a.i. g/ha: I.1 62.5, B.191 225, 20 days after treatment
  herbicidal activity against GALAP found: 65%
GALAP; a.i. g/ha: I.1 62.5, B.67 62.5, 20 days after treatment
  herbicidal activity against GALAP found: 10%
GALAP; [6]
  herbicidal activity against GALAP found: 65%
GALAP; a.i. g/ha: I.1 62.5, B.77 75, 20 days after treatment
  herbicidal activity against GALAP found: 10%
GALAP; [7]
  herbicidal activity against GALAP found: 65%
GALAP; application rate a.i.: I.1 31.25 g/ha, B.84 (paraquat-dichloride) 17.5 g/ha, alone or as mixture (composition 1.84)
  herbicidal activity against GALAP found: 65
GALAP; [8]
  herbicidal activity against GALAP found: 10
GALAP; application rate a.i.: I.1 125 g/ha, B.113 (glyphosate) 33.75 g/ha, alone or as mixture (composition 1.113)
  herbicidal activity against GALAP found: 80
GALAP; application rate a.i.: I.1 125 g/ha, B.113 (glyphosate) 135 g/ha, alone or as mixture (composition 1.113)
  herbicidal activity against GALAP found: 80
GALAP; [9]
  herbicidal activity against GALAP found: 50
GALAP; [10]
  herbicidal activity against GALAP found: 90
GALAP; applied alone at 125 g/ha a.i.
  herbicidal activity against GALAP found: 65 and 95 and 90
LAMAM; 31.25 g/ha a.i.
  herbicidal activity against LAMAM, found: 70
LAMAM; [11]
  herbicidal activity against LAMAM, found: 80
LAMAM; application rate a.i.: I.1 31.25 g/ha, B.87 (carfentrazone-ethyl) 1.75 g/ha, alone or as mixture (composition 1.87)
  herbicidal activity against LALAM, found: 70
LAMAM; application rate a.i.: I.1 62.5 g/ha, B.87 (carfentrazone-ethyl) 1.75 g/ha, alone or as mixture (composition 1.87)
  herbicidal activity against LAMAM, found: 85
POLAV; 62.5 g/ha a.i.
  herbicidal activity against POLAV found: 65
POLAV; 125 g/ha a.i.
  herbicidal activity against POLAV found: 65
POLAV; 6 days after treatment, g/ha a.i.: I.1 31.25, naptalam 50, mixture 31.25+50
  herbicidal activity against POLAV found: 70
POLAV; 6 days after treatment, g/ha a.i.: I.1 31.25, naptalam 200, mixture 31.25+200
  herbicidal activity against POLAV found: 70
POLAV; [1]
  herbicidal activity against POLAV found: 70
POLAV; [2]
  herbicidal activity against POLAV found: 70
POLAV; 6 days after treatment, g/ha a.i.: I.1 62.5, naptalam 50, mixture 62.5+50
  herbicidal activity against POLAV found: 70
POLAV; 6 days after treatment, g/ha a.i.: I.1 62.5, naptalam 100, mixture 62.5+100
  herbicidal activity against POLAV found: 70
POLAV; 6 days after treatment, g/ha a.i.: I.1 62.5, naptalam 200, mixture 62.5+200
  herbicidal activity against POLAV found: 70
POLAV; [12]
  herbicidal activity against POLAV found: 45%
POLAV; a.i. g/ha: I.1 31.25, bentazon Na 125, 20 days after treatment
  herbicidal activity against POLAV found: 80%
CHEAL; a.i. g/ha: I.1 6.9, B.67 62.5, 20 days after treatment
  herbicidal activity against CHEAL found: 0%
CHEAL; [12]
  herbicidal activity against CHEAL found: 70%
CHEAL; [3]
  herbicidal activity against CHEAL found: 0%
CHEAL; a.i. g/ha: I.1 20.8, B.192 62.5, 20 days after treatment
  herbicidal activity against CHEAL found: 85%
CHEAL; [4]
  herbicidal activity against CHEAL found: 85%
CHEAL; [5]
  herbicidal activity against CHEAL found: 65%
CHEAL; a.i. g/ha: I.1 31.25, B.69 25, 20 days after treatment
  herbicidal activity against CHEAL found: 30%
CHEAL; a.i. g/ha: I.1 31.25, B.76 225, 20 days after treatment
  herbicidal activity against CHEAL found: 30%
CHEAL; [6]
  herbicidal activity against CHEAL found: 60%
CHEAL; a.i. g/ha: I.1 62.5, B.76 225, 20 days after treatment
  herbicidal activity against CHEAL found: 60%
CHEAL; [7]
  herbicidal activity against CHEAL found: 60%
ABUTH; I.1 alone 31.25 g/ha a.i.
  pest or weed control at 31.25 g/ha: 0%
ABUTH; I.1 alone 62.5 g/ha a.i.
  pest or weed control at 62.5 g/ha: 65%
ABUTH; 62.5 g/ha a.i.
  pest or weed control at 62.5 g/ha: 25%
ABUTH; I.1 31.25 g/ha a.i.
  pest or weed control at 31.25 g/ha: 20%
ABUTH; single active, 31.25 g/ha a.i.
  pest or weed control at 31.25 g/ha: 0%
ABUTH; 6 days after treatment, g/ha a.i.: I.1 31.25, B.96 35, mixture 31.25+35
  herbicidal activity against ABUTH found: 35
ABUTH; 6 days after treatment, g/ha a.i.: I.1 31.25, B.96 70, mixture 31.25+70
  herbicidal activity against ABUTH found: 35
ABUTH; 6 days after treatment, g/ha a.i.: I.1 31.25, naptalam 100, mixture 31.25+100
  herbicidal activity against ABUTH found: 35
ABUTH; I.1 31.25 g/ha, B.88 1 g/ha a.i.
  herbicidal activity against ABUTH found: 60
ABUTH; I.1 31.25 g/ha, B.89 25 g/ha a.i.
  herbicidal activity against ABUTH found: 60
ABUTH; I.1 62.5 g/ha, B.167 62.5 g/ha a.i.
  herbicidal activity against ABUTH found: 0
ABUTH; I.1 62.5 g/ha, B.167 125 g/ha a.i.
  herbicidal activity against ABUTH found: 0
ABUTH; a.i. g/ha: I.1 7.8, B.67 125, 20 days after treatment
  herbicidal activity against ABUTH found: 0%
ABUTH; [3]
  herbicidal activity against ABUTH found: 30%
ABUTH; [5]
  herbicidal activity against ABUTH found: 60%
ABUTH; a.i. g/ha: I.1 31.25, B.67 125, 20 days after treatment, sub-table r36-r43
  herbicidal activity against ABUTH found: 60%
ABUTH; a.i. g/ha: I.1 62.5, B.67 125, 20 days after treatment
  herbicidal activity against ABUTH found: 90%
ABUTH; [6]
  herbicidal activity against ABUTH found: 50%
ABUTH; application rate a.i.: I.1 20.8 g/ha, B.107 (topramezone) 6 g/ha, alone or as mixture (composition 1.107)
  herbicidal activity against ABUTH found: 0
ABUTH; [11]
  herbicidal activity against ABUTH found: 10
ABUTH; [8]
  herbicidal activity against ABUTH found: 66
ABUTH; [9]
  herbicidal activity against ABUTH found: 30 and 25
ABUTH; [10]
  herbicidal activity against ABUTH found: 50 and 85
ABUTH; applied alone at 125 g/ha a.i.
  herbicidal activity against ABUTH found: 60
ABUTH; g/ha a.i.: I.1 31.25, B.20 2, mixture 31.25+2
  herbicidal activity against ABUTH found: 15
ABUTH; g/ha a.i.: I.1 31.25, B.20 4, mixture 31.25+4
  herbicidal activity against ABUTH found: 15
ABUTH; g/ha a.i.: I.1 31.25, B.24 2, mixture 31.25+2
  herbicidal activity against ABUTH found: 15
ABUTH; g/ha a.i.: I.1 31.25, B.52 2.5, mixture 31.25+2.5
  herbicidal activity against ABUTH found: 15
ABUTH; g/ha a.i.: I.1 31.25, B.52 5, mixture 31.25+5
  herbicidal activity against ABUTH found: 15
ABUTH; g/ha a.i.: I.1 62.5, B.52 2.5, mixture 62.5+2.5
  herbicidal activity against ABUTH found: 60
SORVU; g/ha a.i.: I.1 31.25, B.96 140, mixture 31.25+140
  herbicidal activity against SORVU found: 0
SORVU; g/ha a.i.: I.1 62.5, naptalam 200, mixture 62.5+200
  herbicidal activity against SORVU found: 20
